Data from ChEMBL document CHEMBL5030557, “Tandem Repeat of a Short Human Chemerin-Derived Peptide and Its Nontoxic d-Lysine-Containing Enantiomer Display Broad-Spectrum Antimicrobial and Antitubercular Activities” (J Med Chem, 2021).
Converted amounts (≈) assume the structure as drawn. The source made the active and inactive calls. The calls are words filed in the database; no cut-off is given here.

What was measured:
Escherichia coli [1] = assay: Antibacterial activity against Escherichia coli ATCC 25922 in presence of 10 percent fresh human serum measured after 1 hr; type: functional
[2] = Retention time of the compound analysed by RP-HPLC analysis; type: physicochemical
Staphylococcus aureus [3] = assay: Antimicrobial activity against Staphylococcus aureus ATCC 25923 assessed as inhibition of bacterial growth by broth dilution method; type: functional
[4] = (§1) Disruption of membrane integrity in human RBC cells assessed as membrane damage at 150 uM incubated for 15 min by Alexa fluor-annexin V staining based assay (reference value: 0%); type: functional, Red blood cell; settings: 0.25 h
[5] = Hemolytic activity in human RBC measured after 40 mins; type: ADME, tissue-based, Erythrocyte; settings: red blood cells (RBC)
Staphylococcus aureus [6] = assay: Antimicrobial activity against methicilin- resistant Staphylococcus aureus ATCC 33591 assessed as inhibition of bacterial growth by broth dilution method; type: functional
Klebsiella pneumoniae = assay: Antimicrobial activity against Klebsiella pneumoniae ATCC 27736 assessed as inhibition of bacterial growth by broth dilution method; type: functional
Staphylococcus aureus [7] = assay: Antimicrobial activity against multidrug-resistant Staphylococcus aureus ATCC BAA-44 assessed as inhibition of bacterial growth by broth dilution method; type: functional
Bacillus subtilis = assay: Antimicrobial activity against Bacillus subtilis ATCC 6633 assessed as inhibition of bacterial growth by broth dilution method; type: functional
Escherichia coli [8] = assay: Antibacterial activity against Escherichia coli ATCC 25922 in presence of 4.5 mM KCl measured after 1 hr; type: functional
Escherichia coli [9] = assay: Antimicrobial activity against Escherichia coli ATCC 25922 assessed as inhibition of bacterial growth by broth dilution method; type: functional
Pseudomonas aeruginosa [10] = assay: Antimicrobial activity against Pseudomonas aeruginosa ATCC BAA-427 assessed as inhibition of bacterial growth by broth dilution method; type: functional
Escherichia coli [11] = assay: Antibacterial activity against Escherichia coli ATCC 25922 in presence of temperature ranging from 4 to 90 degC measured after 1 hr; type: functional
Cell membrane [12] = assay: Induction of membrane damage in Escherichia coli assessed as disruption of membrane integrity at 10 uM incubated for 30 min by propidium iodide staining based assay
Escherichia coli [13] = assay: Antibacterial activity against Escherichia coli ATCC 25922 in presence of 150 mM NaCl measured after 1 hr; type: functional
Pseudomonas aeruginosa [14] = assay: Antibacterial activity against Pseudomonas aeruginosa BAA 427 assessed as resistance development by measuring fold change in MIC after 30 passages with serially diluted peptides; type: functional
[15] = test system: Mycolicibacterium smegmatis; assay: Anti-mycobacterial activity against Mycobacterium smegmatis infected in human THP-1 cells assessed as reduction in CFU at 24.19 uM after 24 hrs; type: functional
[16] = test system: Mycobacterium tuberculosis; assay: Anti-mycobacterial activity against Mycobacterium tuberculosis H37Ra assessed as growth inhibition at 16.13 uM relative to control; type: functional
[17] = test system: Mycolicibacterium smegmatis; assay: Anti-mycobacterial activity against Mycobacterium smegmatis assessed as growth inhibition at 16.13 uM relative to control; type: functional
Red blood cell = assay: as §1; type: functional
[18] = Acute toxicity in BALB/c mouse assessed as survival at 20 mg/kg administered intravenously measured after 7 days; type: organism-based; settings: in vivo, iv, 168 h, time 7 day
[19] = Permeability of the compound in PC/PG lipid vesicles by spectrofluorometry; type: ADME
[20] = Acute toxicity in BALB/c mouse assessed as survival at 30 mg/kg administered intravenously measured after 7 days; type: organism-based; settings: in vivo, iv, 168 h, time 7 day
Cell membrane [21] = assay: Disruption of plasma membrane in Staphylococcus aureus ATCC 25923 at 10 uM by SYTOX-green uptake assay; type: cell membranes; settings: TDE = time-dependent effect
[22] = test system: Mycolicibacterium smegmatis; assay: Anti-mycobacterial activity against Mycobacterium smegmatis infected in human THP-1 cells assessed as reduction in CFU at 40.13 uM after 24 hrs; type: functional
[23] = Stability of the compound in human serum assessed as intact compound remaining at 2 mg/ml measured after 60 mins by […] analysis; type: ADME, cell-free; settings: read-out: Stability
Escherichia coli [24] = assay: Bactericidal activity against Escherichia coli ATCC 25922 assessed as bacterial killing at 5 times MIC measured after 60 min; type: functional, organism-based
Lipid bilayer = assay: Induction of membrane depolarization in mammalian mimetic PC/Chol vesicles assessed as membrane permeabilization
Pseudomonas aeruginosa [25] = assay: Anti-infective activity in Pseudomonas aeruginosa infected BALB/c mouse kidney assessed as reduction in bacterial growth at 10 mg/kg, ip after 18 hrs; type: functional, organism-based
Pseudomonas aeruginosa [26] = assay: Anti-infective activity in Pseudomonas aeruginosa infected BALB/c mouse spleen assessed as reduction in bacterial growth at 10 mg/kg, ip after 12 hrs; type: functional, organism-based
[27] = Acute toxicity in BALB/c mouse assessed as change in body weight at 20 mg/kg administered intravenously measured after 7 days; type: organism-based; settings: in vivo, iv, 168 h, time 7 day
THP-1 = assay: Cytotoxicity against human monocyte THP-1 cell line assessed as cell viability measured for 24 hrs using ELISA plate reader; type: cell-based; settings: thp-1, 24 h
Pseudomonas aeruginosa [28] = assay: Antibacterial activity against Pseudomonas aeruginosa infected in Balb/c mouse stomach assessed as animal survival at 5 mg/kg, ip after 7 days; type: functional; settings: 168 h, time 7 day
Pseudomonas aeruginosa [29] = assay: Anti-infective activity in Pseudomonas aeruginosa infected BALB/c mouse liver assessed as reduction in bacterial growth at 10 mg/kg, ip after 12 hrs; type: functional, organism-based
Pseudomonas aeruginosa [30] = assay: Anti-infective activity in Pseudomonas aeruginosa infected BALB/c mouse kidney assessed as reduction in bacterial growth at 10 mg/kg, ip after 12 hrs; type: functional, organism-based
Pseudomonas aeruginosa [31] = assay: Anti-infective activity in Pseudomonas aeruginosa infected BALB/c mouse spleen assessed as reduction in bacterial growth at 10 mg/kg, ip after 18 hrs; type: functional, organism-based
Pseudomonas aeruginosa [32] = assay: Antibacterial activity against Pseudomonas aeruginosa infected in Balb/c mouse stomach assessed as animal survival at 10 mg/kg, ip after 7 days; type: functional; settings: 168 h, time 7 day
[33] = test system: Mycolicibacterium smegmatis; assay: Anti-mycobacterial activity against Mycobacterium smegmatis assessed as reduction in CFU at 3 times MIC after 12 hrs; type: functional, organism-based
[34] = Hemolytic activity in human RBC at 150 uM measured after 40 min by hemolysis assay relative to control; type: ADME, tissue-based, Erythrocyte; settings: red blood cells (RBC), read-out: Activity
Cell membrane [35] = assay: Inner membrane permeability of the compound in Escherichia coli ATCC 25922 by ONPG assay; type: ADME, subcellular
[36] = test system: Mycolicibacterium smegmatis; assay: Anti-mycobacterial activity against Mycobacterium smegmatis assessed as reduction in CFU at 3 times MIC after 24 hrs; type: functional, organism-based
Pseudomonas aeruginosa [37] = assay: Anti-infective activity in Pseudomonas aeruginosa infected BALB/c mouse liver assessed as reduction in bacterial growth at 10 mg/kg, ip after 18 hrs; type: functional, organism-based

| Compound | MIC (Escherichia coli [1]) | Retention_time [2] | MIC (Staphylococcus aureus [3]) | Activity [4] | HC50 at 40 min [5] | MIC (Staphylococcus aureus [6]) | MIC (Klebsiella pneumoniae) | MIC (Staphylococcus aureus [7]) | MIC (Bacillus subtilis) | MIC (Escherichia coli [8]) | MIC (Escherichia coli [9]) | MIC (Pseudomonas aeruginosa [10]) | MIC (Escherichia coli [11]) | Activity (Cell membrane [12]) | MIC (Escherichia coli [13]) | fold change (FC) (Pseudomonas aeruginosa [14]) | inhibition at 24.19 µM [15] | inhibition at 16.13 µM [16] | inhibition at 16.13 µM [17] | Activity [18] | also measured |
| --- | --- | --- | --- | --- | --- | --- | --- | --- | --- | --- | --- | --- | --- | --- | --- | --- | --- | --- | --- | --- | --- |
| CC(C)C[C@H](NC(=O)[C@H](CCCNC(=N)N)NC(=O)CNC(=O)[C@H](CC(C)C)NC(=O)[C@@H](NC(=O)[C@H](CCCCN)NC(=O)[C@@H](NC(=O)[C@H](CC(C)C)NC(=O)[C@H](CCCNC(=N)N)NC(=O)CNC(=O)[C@H](CC(C)C)NC(=O)[C@@H](NC(=O)[C@H](N)CCCCN)C(C)C)C(C)C)C(C)C)C(=O)N[C@H](C(N)=O)C(C)C | 1 µM | 18.8 min | 2 µM (≈ 3.1 µg/mL) | 99.1% | 165 µM | 1 µM (≈ 1.55 µg/mL) | 4 µM (≈ 6.2 µg/mL) | 2 µM (≈ 3.1 µg/mL) | 2 µM (≈ 3.1 µg/mL) | 4 µM | 0.5 µM (≈ 0.775 µg/mL) | 4 µM (≈ 6.2 µg/mL) | 2 µM | Active | 2 µM |  |  |  |  |  |  |
| GENTAMICIN |  |  | 0.67 µM |  |  |  |  | 1.35 µM |  |  |  | 1.35 µM |  |  |  | 16 |  |  |  |  |  |
| CC[C@H](C)[C@H](NC(=O)CN)C(=O)NCC(=O)N[C@@H](C)C(=O)N[C@H](C(=O)N[C@@H](CC(C)C)C(=O)N[C@@H](CCCCN)C(=O)N[C@H](C(=O)N[C@@H](CC(C)C)C(=O)N[C@H](C(=O)N[C@H](C(=O)NCC(=O)N[C@@H](CC(C)C)C(=O)N1CCC[C@H]1C(=O)N[C@@H](C)C(=O)N[C@@H](CC(C)C)C(=O)N[C@H](C(=O)N[C@@H](CO)C(=O)N[C@@H](Cc1c[nH]c2ccccc12)C(=O)N[C@H](C(=O)N[C@@H](CCCCN)C(=O)N[C@@H](CCCNC(=N)N)C(=O)N[C@@H](CCCCN)C(=O)N[C@@H](CCCNC(=N)N)C(=O)N[C@@H](CCC(N)=O)C(=O)N[C@@H](CCC(N)=O)C(N)=O)[C@@H](C)CC)[C@@H](C)CC)[C@@H](C)O)[C@@H](C)O)C(C)C)C(C)C [MELITTIN] |  |  |  | 99.6% |  |  |  |  |  |  |  |  |  |  |  |  |  |  |  |  |  |
| CC(C)C[C@H](NC(=O)[C@H](CCCNC(=N)N)NC(=O)CNC(=O)[C@H](CC(C)C)NC(=O)[C@@H](NC(=O)[C@H](CCCCN)NC(=O)[C@@H](NC(=O)[C@H](CC(C)C)NC(=O)[C@H](CCCNC(=N)N)NC(=O)CNC(=O)[C@H](CC(C)C)NC(=O)[C@@H](NC(=O)[C@@H](N)CCCCN)C(C)C)C(C)C)C(C)C)C(=O)N[C@H](C(N)=O)C(C)C | 2 µM | 16 min | 2 µM (≈ 3.1 µg/mL) | 96.5% | 429 µM | 1 µM (≈ 1.55 µg/mL) | 4 µM (≈ 6.2 µg/mL) | 2 µM (≈ 3.1 µg/mL) | 2 µM (≈ 3.1 µg/mL) | 2 µM | 1 µM (≈ 1.55 µg/mL) | 4 µM (≈ 6.2 µg/mL) | 2 µM | Active | 2 µM | 8 | 20% | 80% | 80% | Non-Toxic | Activity (Red blood cell): Active; Activity [19]: Active; Activity [20]: Non-Toxic; Activity (Cell membrane [21]): Tde; inhibition at 40.13 µM [22]: 40%; remaining at 1 h, 2 mg/ml [23]: 51%; Activity (Escherichia coli [24]): Active; Activity (Lipid bilayer): inactive |
| CC(C)C[C@H](NC(=O)[C@H](CCCNC(=N)N)NC(=O)CNC(=O)[C@H](CC(C)C)NC(=O)[C@@H](NC(=O)[C@@H](CCCCN)NC(=O)[C@@H](NC(=O)[C@H](CC(C)C)NC(=O)[C@H](CCCNC(=N)N)NC(=O)CNC(=O)[C@H](CC(C)C)NC(=O)[C@@H](NC(=O)[C@@H](N)CCCCN)C(C)C)C(C)C)C(C)C)C(=O)N[C@H](C(N)=O)C(C)C | 2 µM | 14.6 min | 1 µM (≈ 1.55 µg/mL) | 2.1% | > 2000 µM | 2 µM (≈ 3.1 µg/mL) | 4 µM (≈ 6.2 µg/mL) | 2 µM (≈ 3.1 µg/mL) | 2 µM (≈ 3.1 µg/mL) | 8 µM | 1 µM (≈ 1.55 µg/mL) | 4 µM (≈ 6.2 µg/mL) | 2 µM | Active | 4 µM | 2 | 40% | 95% | 95% | Toxic | Activity (Pseudomonas aeruginosa [25]): Active; Activity (Pseudomonas aeruginosa [26]): Active; Activity [27]: Non-Toxic; Activity (THP-1): Non-Toxic; survival at 5 mg/kg (Pseudomonas aeruginosa [28]): 40%; Activity [19]: Active; Activity (Pseudomonas aeruginosa [29]): Active; Activity (Pseudomonas aeruginosa [30]): Active; Activity (Pseudomonas aeruginosa [31]): Active; survival at 10 mg/kg (Pseudomonas aeruginosa [32]): 80%; Activity (Cell membrane [21]): Tde; Activity [33]: Active; hemolysis at 40 min, 150 µM [34]: 0%; inhibition at 40.13 µM [22]: 80%; Activity (Cell membrane [35]): Active; remaining at 1 h, 2 mg/ml [23]: 88%; Activity (Escherichia coli [24]): Active; Activity [36]: Active; Activity (Lipid bilayer): inactive; Activity (Pseudomonas aeruginosa [37]): Active |
